In patent publication US7118747B2, “AT4 receptor ligands as angiogenic, anti-angiogenic, and anti-tumor agents” (Pacific Northwest Biotechnology Inc., priority 2003, dated 2006):

Tests used:
[1] = tested on: +SA-WAZ-2T mouse breast cancer cells; assay: Primary mammary tumor growth and vascularization with slow-release pellet; type: in vivo; details: mice
Procedure: To test this prediction mice were implanted with […]+SA-WAZ-2T mouse breast cancer cells (a highly aggressive and metastatic cell line) (Danielson et al., 1980) directly into the mammary gland in the presence or absence of a slow-release pellet containing the AT4 antagonist, NORLEUAL at various concentrations (FIG. 7; FIG. 14[color version]). Mouse mammary glands were injected with 5×10^5 cells. […] Tumors were removed and weighed at various time points. Data shown represents one of three experiments that yielded identical results. […] Arrows indicate large blood vessels in the control tumor. […] The highest dose examined inhibited growth more than 97%. Equally dramatic as the reduced size of the tumors was their lack of vascularization. […] Tumors were harvested after 5 weeks of drug application and stained for Factor VIII. […] The quantitative data shown in FIG. 8B indicates the number of visible blood vessels in an average high power field. Data are mean+/−SEM, n=6.

HUVECs = assay: Net deposition of extracellular matrix protein, Coomassie blue stain; type: cell-based, human; details: 10^-12 M, 3 days
From the text: HUVECs and the mouse breast cancer cell line, +SA-WAZ-2T was exposed to the AT4 receptor antagonist NORLEUAL at 10^−12 M for 3 days. Cells were then stripped with 0.25% Triton X-100 and stained with Coomassie blue to visualize total ECM protein. Without an ECM platform endothelial cells fail to migrate and are unable to stabilize new blood vessels.

[2] = tested on: Human umbilical vein endothelial cells (HUVEC); assay: HUVEC growth, MTT assay; type: cell-based
Procedure: These initial observations were extended to human endothelial cells (FIG. 1A) where application of the high affinity agonist, Nle^1-Ang IV (Sardinia et al., 1994; Wright et al., 1999), produces a dose-dependent increase in growth. Human umbilical vein endothelial cells (HUVEC) were grown in EGM (Clonetics) and 10% calf serum for four days in the absence (control) or presence of 10^−8 M, 10^−10 M, or 10^−12 M Nle^1-Ang IV. Cell proliferation was estimated by monitoring mitochondrial activity with the redox-sensitive substrate 3-[4,5-Dimethylthiazol-2-yl]-2,5-diphenyltetrazolium bromide (MTT) (Carmicheal et al., 1987).
(§1) Most relevant for anti-angiogenic cancer treatment is the ability of AT4 antagonists to inhibit endothelial cell growth in culture. Attenuated growth has been observed with both CVECs and with HUVECs (FIG. 1B). After four days of treatment with 10^−10 M Nle^1, Leu^3-Ψ(CH2—NH2)^3-4-Ang IV (NORLEUAL), a potent AT4 receptor antagonist (Kramar et al., 2001), growth of CVECs was reduced to 25% of control (Mean±SEM; n=8; p<.001). […] Cell proliferation was again estimated using the MTT assay.

[3] = tested on: MDA-MB-231 human breast cancer cells; assay: MDA-MB-231 growth, MTT assay; type: cell-based; details: 10^-12 M, four days in culture
From the text: Because of the marked effectiveness of AT4 receptor antagonists to inhibit the growth and metastasis of breast cancer in vivo, and the generally disappointing activity of anti-angiogenic molecules seen in clinical trials (Kerbel and Folkman, 2002), we decided to ascertain whether these drugs might have a direct effect on tumor cells as well as inhibiting angiogenesis. The growth of MDA-MB-23 1 cells, an aggressive estrogen-independent human cell line was inhibited by all concentrations that were examined (FIG. 10). Growth was assessed using the mitochondrial activity dye MTT after four days in culture. Growth was reduced to less than 25% of control by a concentration of NORLEUAL of 10^−12 M (Mean+/−SEM; n=6). […] The unusual reversed dose-response curve seen with the MDA-MB-231 cells may represent differential effects on multiple receptor subtypes with varied ligand affinities. […] The ability of AT4 receptor antagonists to inhibit both the angiogenic process as well as the proliferation of human cancer cells makes them unique among anti-cancer agents and provides a plausible explanation for their dramatic ability to inhibit tumor growth and metastasis.

C6 glioma cells = assay: Net deposition of extracellular matrix protein, Coomassie blue stain; type: cell-based; details: 10^-12 M, 3 days
Procedure: (§2) Human dermal fibroblasts and C6 glioma cells (astrocyte tumor) were treated with 10^−12 M NORLEUAL for 3 days. Cells were stripped with 0.25 % Triton X-100 for 10 minutes and stained with either Coomassie blue (gliomas) or anti-fibronectin (fibroblasts). Stained dots remaining after treatment are nuclei. Although the mechanism responsible for the lose of ECM proteins has yet to be fully elucidated, a contributing factor could be AT4 receptor-dependent alterations in the expression of matrix metalloproteinases. Application of AT4 receptor ligands to rabbit cardiac fibroblasts initiated marked changes in the expression of various matrix metalloproteinases (MMPs) (FIG. 3). Conditioned media from cardiac fibroblasts treated with various AT4 receptor ligands for 12 hours was loaded and run on a 10% SDS-polyacrylamide gel containing the 1% gelatin, an MMP substrate. After renaturation and activation of MMPs, the gel was incubated at 37° C. for 24 hours to allow for the degradation of gelatin at sites within the gel where MMPs reside. These sites are seen as unstained lytic bands on a background of stained and undegraded gelatin. Lane one is control media from cells with no exposure to AT4 receptor ligands. Lanes 2-4 contained media from cells treated with Nle^1-Ang IV, a putative AT4 receptor agonist, at concentrations of 1 nM, 10 nM, and 100 nM respectively. […]

Human dermal fibroblasts = assay: Net deposition of extracellular matrix protein, anti-fibronectin stain; type: cell-based; details: 10^-12 M, 3 days
Procedure: as §2

[4] = tested on: bovine coronary venular endothelial cells (CVEC); assay: CVEC growth, MTT assay; type: cell-based; details: 10^-10 M, four days of treatment
From the text: as §1

[5] = tested on: murine breast cancer cells; assay: Lung metastasis after tail vein injection of breast cancer cells; type: in vivo, mice; details: Elvax pellets with 0.3 mg bilaterally
From the text: In addition to inhibiting primary tumor growth, AT4 receptor antagonists are also effective at preventing the growth of lung metastases (as assessed by total lung weight and the presence of metastatic tumor nodules) in mice that have had breast cancer cells injected via the tail vein (FIG. 9). In these experiments the drug was applied using Elvax slow-release pellets that were implanted into the gluteus maximus muscle coincident with the injection of tumor cells into the tail vein. Mice were injected with 5×10^5 murine breast cancer cells and bilaterally implanted with Elvax pellets containing 0.3 mg of NORLEUAL. Lungs were harvested 7 weeks after tumor cell injection and weighed. […] In order to compare just the added lung weight due to tumor infiltration, tumor burden was calculated by subtracting the mean lung weight of wild type untreated controls from the weight of lungs from experimental groups. The mean lung weight of the untreated tumor controls was normalized to 100. Typically, the lung weights of cancer injected, non-treated mice were 50% greater than non-injected controls and treated mice. Spleen weight, another indication of tumor burden, was also normal in treated mice.

Rat aortic rings = assay: Ex vivo rat aortic ring angiogenesis assay; details: 3 days in basal medium with varying concentrations; p<0.02 for 10^-6 M
Procedure: (§3) This prediction has been borne out in studies examining the anti-angiogenic activity of the AT4 receptor antagonist, NORLEUAL, using an ex vivo aortic ring model (FIG. 5) and an in vivo disc angiogenesis assay system in rats (FIG. 6). The data shown in FIG. 5 illustrate the dramatic ability of an AT4 receptor antagonist to inhibit neovascular growth. Rat aortic rings were incubated for 24 hours in a growth factor rich medium (EGM-2) followed by 3 days of incubation in a basal medium (control) or basal media with varying concentrations of NORLEUAL. The data shown in FIG. 5A compare an untreated control ring and a ring treated with 10^−6 M NORLEUAL. […] Disks (1 cm diameter) composed of surgical sponge sandwiched between impermeable membranes were implanted subcutaneously in the backs of rats. In the center of the disks was a pellet containing the test material. The disks were removed 10 days after implantation, paraffin sectioned, stained with Coomassie blue, and analyzed by quantitative image analysis methods to determine the vascularized area. […] Data from discs containing no drug (control), an AT4 receptor agonist (Cpnd 1), or an AT4 receptor antagonist (Cpnds 2-4). Cmpd 2 is NORLEUAL. Each disc contained 10 micrograms of drug. Data is presented as the percent of the total disc area that is vascularized (Mean±SEM; n=8).

[6] = tested on: angiogenesis into subcutaneously implanted disc; assay: In vivo disc angiogenesis assay; details: rat, 10 micrograms of drug per disc, 10 days after implantation
Procedure: as §3

[7] = tested on: bovine coronary venular endothelial cells (CVEC); details: cultured CVEC (Hall et al., 1995); cited from earlier work

## Nle^1, Leu^3-Ψ(CH2—NH2)^3-4-Ang IV [NORLEUAL]
[1]; highest dose examined, Elvax pellet in mammary gland
  inhibition of primary tumor growth: more than 97%
[1]; tumors harvested after 5 weeks of drug application
  tumor vascularization, Factor VIII stained sections: nearly avascular
HUVECs
  density of endothelial-associated ECM: dramatic reduction in the density of the endothelial-associated ECM
[2]; 10^-6 M
  growth of HUVECs, largest decrease: 39 % control
[3]
  growth of MDA-MB-231 cells: less than 25 % of control
C6 glioma cells
  deposited ECM: near total loss of deposited ECM
Human dermal fibroblasts
  deposited ECM: near total loss of deposited ECM
[4]
  growth of CVECs: 25 % of control
[5]; mice, lungs harvested at 7 weeks
  lung metastases: no gross or microscopic indication of metastases
[5]; treated mice
  spleen weight, indication of tumor burden: normal
Rat aortic rings
  vessel growth in aortic rings: inhibition of vessel growth

## Nle^1-Ang IV
[2]; HUVEC, four days, 10^-8, 10^-10 or 10^-12 M
  maximum observed increase in endothelial cell proliferation: 330 % of control levels
[6]
  angiogenesis, percent of total disc area vascularized: trend toward enhancing angiogenesis
[7]
  rate of 3H-thymidine incorporation: augment the rate of ^3H-thymidine incorporation
